In one experiment the target is human CB2R (Homo sapiens, UniProt P34972). Nature of the experiment: [35S]GTPγS binding assay, CHO-hCB2 membranes. It is filed as biochemical. (In general: GTPγS is a poorly hydrolysed GTP analogue; its binding reports G protein activation.)
Another experiment concerns the target human CB1R (Homo sapiens, UniProt P21554). The experiment can be described thus: [35S]GTPγS binding assay, CHO-hCB1 membranes. Type of experiment: biochemical.
The test system of the next experiment is BALB/c mice. The experiment can be described thus: Tetrad test. Type of experiment: in vivo, mouse. Particulars: pretreatment at 5 mg/kg.

As usually defined, the Emax is the maximal effect, on the per cent scale that the assay sets.

Sequence of human CB1R (P21554 whole entry): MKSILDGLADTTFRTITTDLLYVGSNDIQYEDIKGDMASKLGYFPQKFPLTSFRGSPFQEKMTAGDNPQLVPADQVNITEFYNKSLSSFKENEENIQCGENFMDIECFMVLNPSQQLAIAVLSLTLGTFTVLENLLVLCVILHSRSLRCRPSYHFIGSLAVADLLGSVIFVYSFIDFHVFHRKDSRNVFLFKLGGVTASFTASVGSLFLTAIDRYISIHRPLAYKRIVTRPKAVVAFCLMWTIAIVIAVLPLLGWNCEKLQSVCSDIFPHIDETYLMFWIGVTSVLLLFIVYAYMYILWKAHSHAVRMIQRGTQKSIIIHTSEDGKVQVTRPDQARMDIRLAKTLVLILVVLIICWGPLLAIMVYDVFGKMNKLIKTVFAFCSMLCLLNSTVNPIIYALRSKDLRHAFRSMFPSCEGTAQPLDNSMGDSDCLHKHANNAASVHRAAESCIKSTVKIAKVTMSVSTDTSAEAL
Sequence of human CB2R (P34972 whole entry): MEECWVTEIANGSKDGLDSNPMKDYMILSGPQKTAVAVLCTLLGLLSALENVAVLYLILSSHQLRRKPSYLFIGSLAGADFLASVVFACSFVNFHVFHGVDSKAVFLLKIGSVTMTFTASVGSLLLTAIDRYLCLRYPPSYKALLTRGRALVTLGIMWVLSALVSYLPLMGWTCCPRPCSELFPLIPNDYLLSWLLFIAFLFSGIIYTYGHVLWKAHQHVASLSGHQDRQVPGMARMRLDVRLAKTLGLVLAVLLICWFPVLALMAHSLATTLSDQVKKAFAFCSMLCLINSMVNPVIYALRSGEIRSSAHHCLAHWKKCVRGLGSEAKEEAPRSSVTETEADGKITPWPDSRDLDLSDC

In the case of `CCCCCCC(C)(C)c1ccc([C@@H]2C[C@H](O)CC[C@H]2CCCO)c(O)c1` [CP55,940], the “CB2R agonist type (full or partial agonist)” value on human CB2R ([35S]GTPγS binding) is “full”. Further, the Emax at human CB2R (read-out: Receptor activation CB2R (Emax)) came out at 194 ± 5%; at human CB1R (read-out: Receptor activation CB1R (Emax)), 173 ± 6%. For the same molecule, the “CB1R agonist type (full or partial agonist)” value at human CB1R ([35S]GTPγS binding) was “full”.
As for `Cc1c(C(=O)NN2CCCCC2)nn(-c2ccc(Cl)cc2Cl)c1-c1ccc(Cl)cc1` [rimonabant, Rimonabant], the “Blockade of the tetrad effects of PET and THC diastereoisomers” value in the experiment with BALB/c mice is recorded as “fully abolished”.

(Values after publication PMC6200358 (Science Advances, 2018).)
